52 substances from US20110039763A1, “TARGETED ANTIMICROBIAL MOIETIES” (C3 JIAN, INC., priority 2009, published 2011) can be followed below.

“Also recorded” adds a separate entry of the source. Square brackets hold non-standard residues; d marks the D form. Ends that are not written are not given here. Aib = CC(C)(N)C(=O)O

For the assay, the system named is microorganisms. Put plainly: Targeting peptide binding to target microorganisms (Tables 3, 10, 12). Particulars: microorganism(s) the targeting peptide binds; binding in aqueous buffers varied with peptide solubility, preferably 1x PBS.
Regarding “PF-727 (AYARCRHDYPFTLGQMQTH; Peptide with targeting and/or antimicrobial activity)”, the “Target(s)” value is reported as “S. mutans; also recorded: E. coli”.

With “PF-728 (AIGQEQDRREYYYYSGYPYYY; Peptide with targeting and/or antimicrobial activity)”, the “Target(s)” value was “S. mutans; also recorded: E. coli”.

In the case of “PF-731 (RHKLIRLPLSESVFCFLNNPKI; Peptide with targeting and/or antimicrobial activity)”, the “Target(s)” value is “L. pneumophila”. Under “PF-732 (DRPSQTTHHTLSSSRITGPS; Peptide with targeting and/or antimicrobial activity)” stands “E. coli”; under “PF-733 (VISRQMGSEAVLELFIIM; Peptide with targeting and/or antimicrobial activity)”, “S. mutans; also recorded: E. coli”; under “PF-735 (YDPLFPNDKN; Peptide with targeting and/or antimicrobial activity)”, “S. mutans; also recorded: E. coli”. Turning to “PF-750 (AESSPAKTTA; Peptide with targeting and/or antimicrobial activity)”, the “Target(s)” value is “M. luteus; also recorded: C. jeikeium”.

Regarding “PF-751 (AESSPAQETT; Peptide with targeting and/or antimicrobial activity)”, the “Target(s)” value is on record as “S. epidermidis; also recorded: E. coli; also recorded: C. albicans; also recorded: C. jeikeium”. In the case of “PF-765 (YLYWEVEHKPIIAKRDAYYAQLRKQKEIEEGA; Peptide with targeting and/or antimicrobial activity)”, the “Target(s)” value is “S. epidermidis and M. luteus and E. coli and MRSA and E. faecalis and C. jeikeium”. Take “PF-766 (DAYYAQLRKQKEIEEGA; Peptide with targeting and/or antimicrobial activity)”: the “Target(s)” value is “S. epidermidis and M. luteus and C. albicans and MRSA and E. faecalis and C. jeikeium”. Under “PF-767 (DGKQGEPVALKPTDN; Peptide with targeting and/or antimicrobial activity)” stands “S. epidermidis and M. luteus and E. coli and MRSA and S. pneumoniae and E. faecalis and C. jeikeium”; under “PF-768 (GFRGGKRGGARG; Peptide with targeting and/or antimicrobial activity)”, “S. epidermidis; also recorded: S. pneumoniae; also recorded: E. faecalis; also recorded: C. jeikeium”.

For the substance “PF-772 (TKESSS; Peptide with targeting and/or antimicrobial activity)”, the “Target(s)” value is “S. epidermidis and C. albicans and MRSA and S. pneumoniae and C. jeikeium”. Under “PF-773 (TLKESK; Peptide with targeting and/or antimicrobial activity)” stands “S. epidermidis; also recorded: C. albicans; also recorded: C. jeikeium”; under “PF-777 (PGADGKLAEASAAIARLVRS; Peptide with targeting and/or antimicrobial activity)”, “Mycobacteria spp”; under “PF-778 (MNLILTAHGT; Peptide with targeting and/or antimicrobial activity)”, “Mycobacteria spp”.

As to “PF-779 (IYGDFFNFYLCDISLKVNGLQPGGPVRTVKLFGQPTGRCTPQ; Peptide with targeting and/or antimicrobial activity)”, the “Target(s)” value was “Mycobacteria spp”. As to “PF-780 (AVYDALVALAAAEHRAELATRDARAKDTYEKIGVHVVVAA; Peptide with targeting and/or antimicrobial activity)”, the “Target(s)” value is given as “Mycobacteria spp”. Then “PF-781 (PLVVVNHRRAERSRG; Peptide with targeting and/or antimicrobial activity)”, with “Mycobacteria spp”; and “PF-782 (TGPRRGIDLTSNRALSEVLDEGLELNSRK; Peptide with targeting and/or antimicrobial activity)”, with “Mycobacteria spp”; and “PF-783 (FTSEVRGVFTYRVNKAGLITNMRGYWNLDMMTFGNQE; Peptide with targeting and/or antimicrobial activity)”, with “Mycobacteria spp”. Under “PF-784 (MAMTTVDNIVGLVIAVALMAFLFAALLFPEKF; Peptide with targeting and/or antimicrobial activity)” stands “Mycobacteria spp”. Then “PF-785 (MRPQHSPAGKAFVVKKITHEQS; Peptide with targeting and/or antimicrobial activity)”, with “Mycobacteria spp”; and “PF-786 (LSERERRRLKRGII; Peptide with targeting and/or antimicrobial activity)”, with “Mycobacteria spp”. Consider “PF-787 (MTERQRRALLKQHPEVVSWSDYLEKRKRRTGTAG; Peptide with targeting and/or antimicrobial activity)”, for which the “Target(s)” value is “Mycobacteria spp”. On to “PF-788 (GLITVFAGTARILQLRRAAKKTHAAALR; Peptide with targeting and/or antimicrobial activity)”, for which the “Target(s)” value is on record as “Mycobacteria spp”. On to “PF-789 (PRGAQSGHG; Peptide with targeting and/or antimicrobial activity)”, for which the “Target(s)” value was “Mycobacteria spp”. Consider “PF-790 (PAGPDHLDQRDHR; Peptide with targeting and/or antimicrobial activity)”, for which the “Target(s)” value is listed as “Mycobacteria spp”. Regarding “PF-791 (IFLTTQNTDYSEHNAA; Peptide with targeting and/or antimicrobial activity)”, the “Target(s)” value was “S. mutans”.

Regarding “PF-792 (ALHASGIQAI; Peptide with targeting and/or antimicrobial activity)”, the “Target(s)” value is on record as “S. mutans”. On to “PF-793 (YTQ[Aib]NNASAYAMLLTNKDTVP; ends and bridges not checked)”, for which the “Target(s)” value is recorded as “S. mutans”. Under “PF-794 (NLYFENQGN; Peptide with targeting and/or antimicrobial activity)” stands “S. mutans”; under “PF-795 (ALHKSGIQVIADWVPDQIYN; Peptide with targeting and/or antimicrobial activity)”, “S. mutans”. Under “PF-796 (YTQSNIPTAYALMLSNKDSI; Peptide with targeting and/or antimicrobial activity)” stands “S. mutans”; under “PF-797 (WYYFDNNGYM; Peptide with targeting and/or antimicrobial activity)”, “S. mutans”. In the case of “PF-798 (ALHSKGIKVMADWVPDQMYA; Peptide with targeting and/or antimicrobial activity)”, the “Target(s)” value was “S. mutans”. For the substance “PF-799 (YTHYNTALSYALLLTNKSSVP; Peptide with targeting and/or antimicrobial activity)”, the “Target(s)” value is listed as “S. mutans”. Under “PF-800 (WYYFDNNGYM; Peptide with targeting and/or antimicrobial activity)” stands “S. mutans”. Under “PF-C003 (FCSVDHDVITIAADHVKQGAEA; Peptide with targeting and/or antimicrobial activity)” stands “A. naeslundii; also recorded: P. gingivalis; also recorded: S. mutans”. As for “PF-C008 (AQPRRTWLVNFGEVPSPGLTNDGMPDH; Peptide with targeting and/or antimicrobial activity)”, the “Target(s)” value is on record as “A. naeslundii”. For “PF-C034 (HPMPITVRSRKPGPLTAPSEH; Peptide with targeting and/or antimicrobial activity)”, the “Target(s)” value is reported as “S. mutans; also recorded: E. coli”. “PF-C045 (FREGMGWPLSNEGSPTAPLPKHRNQV; Peptide with targeting and/or antimicrobial activity)”: the “Target(s)” value is “A. naeslundii; also recorded: T. denticola”. As to “PF-C050 (QGLARPVLRRIPL; Peptide with targeting and/or antimicrobial activity)”, the “Target(s)” value was “A. naeslundii; also recorded: S. mutans”. Then “PF-C063 (SHFRKGD; Peptide with targeting and/or antimicrobial activity)”, with “A. naeslundii; also recorded: F. nucleatum; also recorded: S. mutans”; and “PF-C068 (LNLFASI; Peptide with targeting and/or antimicrobial activity)”, with “A. naeslundii; also recorded: F. nucleatum; also recorded: S. mutans”. With “PF-C080 (INIPGLF; Peptide with targeting and/or antimicrobial activity)”, the “Target(s)” value is “A. naeslundii; also recorded: F. nucleatum; also recorded: S. mutans”.

Consider “PF-C093 (EKLGTMV; Peptide with targeting and/or antimicrobial activity)”, for which the “Target(s)” value is listed as “A. naeslundii; also recorded: F. nucleatum; also recorded: S. mutans”.

With “PF-C134 (NELMKYPATLTATATTPGIKYSHLCSVCL; Peptide with targeting and/or antimicrobial activity)”, the “Target(s)” value is given as “A. naeslundii; also recorded: F. nucleatum; also recorded: P. gingivalis; also recorded: S. mutans; also recorded: T. denticola”. Then “PF-C160 (AASGFTYCASNGVWHPY; Peptide with targeting and/or antimicrobial activity)”, with “F. nucleatum”; and “PF-C259 (AEIQPHCLSVL; Peptide with targeting and/or antimicrobial activity)”, with “F. nucleatum; also recorded: S. mutans”. Under “PF-C271 (FFPSYYSIIITYF; Peptide with targeting and/or antimicrobial activity)” stands “A. naeslundii; also recorded: F. nucleatum; also recorded: P. gingivalis; also recorded: S. mutans; also recorded: T. denticola”; under “PF-C273 (KNMLKRRMKQKRLFDEEDRLRVLSKYTKSYY; Peptide with targeting and/or antimicrobial activity)”, “A. naeslundii; also recorded: P. gingivalis; also recorded: S. mutans; also recorded: T. denticola”.
